Experiment [1] has as its target T1, NADPH oxidase 1 (Homo sapiens, UniProt Q9Y5S8).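 Note: Cell-based assay with luminescence read-out, IC50 derived from inhibitor dose-response curves; intracellular ROS from endogenous NOX1 in intact HT29 colon cancer cells; potency of inhibitors that lower the ROS luminescence signal.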
T1 sequence (Q9Y5S8 whole entry): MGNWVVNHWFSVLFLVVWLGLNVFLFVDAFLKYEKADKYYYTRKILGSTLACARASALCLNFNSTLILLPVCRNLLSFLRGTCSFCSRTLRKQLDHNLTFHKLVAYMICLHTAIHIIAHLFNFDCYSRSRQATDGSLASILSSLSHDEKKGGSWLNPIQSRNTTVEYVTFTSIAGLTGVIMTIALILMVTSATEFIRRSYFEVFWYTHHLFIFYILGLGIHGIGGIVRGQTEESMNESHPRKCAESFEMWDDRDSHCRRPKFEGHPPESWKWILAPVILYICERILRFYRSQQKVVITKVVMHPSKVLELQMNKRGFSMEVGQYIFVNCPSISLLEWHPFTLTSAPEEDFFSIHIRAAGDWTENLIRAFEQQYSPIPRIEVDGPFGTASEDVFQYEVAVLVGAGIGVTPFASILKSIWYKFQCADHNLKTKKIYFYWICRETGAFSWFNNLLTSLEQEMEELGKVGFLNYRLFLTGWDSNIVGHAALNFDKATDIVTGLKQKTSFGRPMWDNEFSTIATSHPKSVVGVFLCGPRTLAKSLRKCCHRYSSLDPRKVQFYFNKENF
The experiment is classed as functional, cell-based.

Experiment [2] concerns the target T2, Protein RecA (Mycobacterium tuberculosis, UniProt P9WHJ3).
T2 sequence (P9WHJ3 whole entry): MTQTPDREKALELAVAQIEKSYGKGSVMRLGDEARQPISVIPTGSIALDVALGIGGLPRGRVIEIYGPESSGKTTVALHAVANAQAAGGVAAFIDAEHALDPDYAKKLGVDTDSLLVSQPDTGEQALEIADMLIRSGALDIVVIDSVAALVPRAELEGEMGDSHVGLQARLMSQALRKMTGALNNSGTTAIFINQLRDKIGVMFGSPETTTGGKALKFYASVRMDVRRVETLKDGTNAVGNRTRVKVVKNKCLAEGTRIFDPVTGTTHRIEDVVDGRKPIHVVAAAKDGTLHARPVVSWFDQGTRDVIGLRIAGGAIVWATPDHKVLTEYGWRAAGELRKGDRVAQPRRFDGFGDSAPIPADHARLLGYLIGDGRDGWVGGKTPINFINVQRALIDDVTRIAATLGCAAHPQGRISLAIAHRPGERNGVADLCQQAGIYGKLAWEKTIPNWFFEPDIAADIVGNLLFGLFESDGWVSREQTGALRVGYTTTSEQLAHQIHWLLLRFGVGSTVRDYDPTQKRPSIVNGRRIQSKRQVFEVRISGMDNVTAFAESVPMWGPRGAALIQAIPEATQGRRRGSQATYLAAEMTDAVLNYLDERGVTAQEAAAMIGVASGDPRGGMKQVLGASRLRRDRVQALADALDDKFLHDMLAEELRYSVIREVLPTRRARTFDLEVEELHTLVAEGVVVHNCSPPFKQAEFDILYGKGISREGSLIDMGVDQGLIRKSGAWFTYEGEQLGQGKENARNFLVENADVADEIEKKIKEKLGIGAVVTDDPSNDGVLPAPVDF
The experiment in a line: Fluorescence Cell-Free Homogeneous Dose Retest to Identify Inhibitors of RecA-Intein Splicing Activity. [Related pubchem assays (depositor defined):AID2097, AID2223, AID489010, AID492950]. The experiment is classed as functional.

Experiment [3] deals with T3, Replicative DNA helicase DnaB (Mycobacterium tuberculosis, UniProt P9WMR3).
T3 sequence (P9WMR3 whole entry): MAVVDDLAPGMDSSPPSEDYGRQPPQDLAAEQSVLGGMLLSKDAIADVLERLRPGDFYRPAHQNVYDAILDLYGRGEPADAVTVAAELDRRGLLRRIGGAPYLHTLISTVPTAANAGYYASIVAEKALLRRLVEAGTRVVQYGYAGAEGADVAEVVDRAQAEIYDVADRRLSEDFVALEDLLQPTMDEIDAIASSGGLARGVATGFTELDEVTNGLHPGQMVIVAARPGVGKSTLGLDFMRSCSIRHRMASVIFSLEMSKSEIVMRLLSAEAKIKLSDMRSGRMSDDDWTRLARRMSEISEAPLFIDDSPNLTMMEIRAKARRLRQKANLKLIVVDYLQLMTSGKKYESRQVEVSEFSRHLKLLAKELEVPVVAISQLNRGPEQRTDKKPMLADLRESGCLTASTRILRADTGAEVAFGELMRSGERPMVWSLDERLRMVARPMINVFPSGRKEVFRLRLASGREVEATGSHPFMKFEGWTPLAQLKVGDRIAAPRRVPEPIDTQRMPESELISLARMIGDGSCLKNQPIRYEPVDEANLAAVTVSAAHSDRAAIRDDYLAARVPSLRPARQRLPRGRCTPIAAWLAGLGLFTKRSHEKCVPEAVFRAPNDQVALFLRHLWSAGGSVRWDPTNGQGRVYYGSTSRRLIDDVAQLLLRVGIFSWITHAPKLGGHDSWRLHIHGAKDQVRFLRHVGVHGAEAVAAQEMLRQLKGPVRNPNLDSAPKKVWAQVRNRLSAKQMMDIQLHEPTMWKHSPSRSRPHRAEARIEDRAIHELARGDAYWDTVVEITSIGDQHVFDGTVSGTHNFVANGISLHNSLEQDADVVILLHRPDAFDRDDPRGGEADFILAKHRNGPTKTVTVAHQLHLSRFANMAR
As to the kind of experiment: DnaB intein splicing inhibitors, dose response, biochemical, cell-free fluorescence (AID 449749). The experiment is classed as functional.

The target of experiment [4] is Procathepsin L (Homo sapiens, UniProt P07711). As to the kind of experiment: cathepsin L inhibitors, dose response, counter-screen for M1/M17 aminopeptidase inhibitor project, biochemical, QFRET, 1536-well (AID 2214). For orientation: The purpose of a counterscreen is to sort out artefacts and off-target activity.
Procathepsin L, sequence (P07711 whole entry): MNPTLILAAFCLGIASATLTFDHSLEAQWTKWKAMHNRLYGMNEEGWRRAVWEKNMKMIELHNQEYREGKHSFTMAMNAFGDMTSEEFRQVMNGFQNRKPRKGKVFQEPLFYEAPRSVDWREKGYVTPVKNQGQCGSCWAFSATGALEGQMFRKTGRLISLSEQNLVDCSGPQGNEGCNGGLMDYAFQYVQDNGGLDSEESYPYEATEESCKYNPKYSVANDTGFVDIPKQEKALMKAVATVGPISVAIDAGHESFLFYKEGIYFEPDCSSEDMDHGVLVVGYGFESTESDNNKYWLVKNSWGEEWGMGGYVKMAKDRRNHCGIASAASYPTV
Experiment [5] addresses T4, Aspartyl aminopeptidase (Plasmodium falciparum 3D7, UniProt Q8I2J3).
T4 sequence (Q8I2J3 whole entry): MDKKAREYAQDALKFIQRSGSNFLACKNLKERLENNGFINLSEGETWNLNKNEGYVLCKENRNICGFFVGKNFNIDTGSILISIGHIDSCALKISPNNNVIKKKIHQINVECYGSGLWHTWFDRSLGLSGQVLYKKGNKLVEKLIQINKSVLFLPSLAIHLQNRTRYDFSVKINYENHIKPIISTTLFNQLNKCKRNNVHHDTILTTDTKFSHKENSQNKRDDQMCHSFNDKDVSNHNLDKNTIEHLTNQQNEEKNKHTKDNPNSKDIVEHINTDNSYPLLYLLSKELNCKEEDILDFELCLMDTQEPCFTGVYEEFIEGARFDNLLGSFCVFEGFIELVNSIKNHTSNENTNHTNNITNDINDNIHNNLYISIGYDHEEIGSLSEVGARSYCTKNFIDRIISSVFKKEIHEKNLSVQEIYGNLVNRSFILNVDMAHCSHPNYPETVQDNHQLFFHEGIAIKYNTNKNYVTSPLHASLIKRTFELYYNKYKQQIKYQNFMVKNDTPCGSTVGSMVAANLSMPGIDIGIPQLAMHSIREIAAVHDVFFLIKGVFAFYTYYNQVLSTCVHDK
As to the kind of experiment: Counterscreen for inhibitors of M1 and M17 aminopeptidases: QFRET-based biochemical high throughput dose response assay for inhibitors of the Plasmodium falciparum M18 Aspartyl Aminopeptidase (PFM18AAP). [Related PubChem assays: 1619 (Screening assay (M17LAP inhibitors).), 1445 (Screening assay (M1AAP inhibitors).)].

For experiment [6], the target named is T5, Leucine aminopeptidase (Plasmodium falciparum 3D7, UniProt Q8IL11).
T5 sequence (Q8IL11 whole entry): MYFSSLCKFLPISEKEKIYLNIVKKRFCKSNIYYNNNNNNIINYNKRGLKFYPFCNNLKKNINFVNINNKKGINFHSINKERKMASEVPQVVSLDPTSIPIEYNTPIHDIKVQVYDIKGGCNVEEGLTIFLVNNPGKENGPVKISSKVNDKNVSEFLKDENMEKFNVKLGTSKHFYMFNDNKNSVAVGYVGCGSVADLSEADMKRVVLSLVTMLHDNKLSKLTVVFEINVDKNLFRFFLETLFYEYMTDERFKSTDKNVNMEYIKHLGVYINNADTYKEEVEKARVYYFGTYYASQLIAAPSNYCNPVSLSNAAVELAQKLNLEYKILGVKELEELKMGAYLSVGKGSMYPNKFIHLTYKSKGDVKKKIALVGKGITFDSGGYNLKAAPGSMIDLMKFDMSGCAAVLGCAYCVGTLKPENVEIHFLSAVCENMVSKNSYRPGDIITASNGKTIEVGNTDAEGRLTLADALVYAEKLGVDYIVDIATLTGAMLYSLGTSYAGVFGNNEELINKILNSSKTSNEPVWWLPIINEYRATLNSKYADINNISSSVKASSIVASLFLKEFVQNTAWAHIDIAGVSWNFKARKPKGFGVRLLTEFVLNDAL
The experiment in a line: P. falciparum M17LAP inhibitors, primary screen, biochemical, fluorogenic H-Leu-NHMec substrate, 1536-well (AID 1619). The experiment is classed as functional.

Experiment [7] deals with T6, Neuropeptide Y receptor type 1 (Homo sapiens, UniProt P25929).
T6 sequence (P25929 whole entry): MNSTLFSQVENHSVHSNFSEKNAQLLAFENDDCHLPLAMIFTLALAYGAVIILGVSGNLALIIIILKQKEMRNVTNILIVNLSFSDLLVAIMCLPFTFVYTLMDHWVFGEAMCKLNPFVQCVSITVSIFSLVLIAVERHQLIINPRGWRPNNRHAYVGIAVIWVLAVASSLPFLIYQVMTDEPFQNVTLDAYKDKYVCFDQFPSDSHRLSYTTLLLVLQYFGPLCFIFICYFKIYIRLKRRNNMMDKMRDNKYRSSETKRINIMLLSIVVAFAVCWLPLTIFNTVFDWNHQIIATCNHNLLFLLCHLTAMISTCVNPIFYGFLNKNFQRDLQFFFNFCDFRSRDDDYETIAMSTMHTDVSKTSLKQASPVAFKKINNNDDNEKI
The experiment is classed as functional.

Experiment [8] addresses T7, Neuropeptide Y receptor type 2 (Homo sapiens, UniProt P49146).
T7 sequence (P49146 whole entry): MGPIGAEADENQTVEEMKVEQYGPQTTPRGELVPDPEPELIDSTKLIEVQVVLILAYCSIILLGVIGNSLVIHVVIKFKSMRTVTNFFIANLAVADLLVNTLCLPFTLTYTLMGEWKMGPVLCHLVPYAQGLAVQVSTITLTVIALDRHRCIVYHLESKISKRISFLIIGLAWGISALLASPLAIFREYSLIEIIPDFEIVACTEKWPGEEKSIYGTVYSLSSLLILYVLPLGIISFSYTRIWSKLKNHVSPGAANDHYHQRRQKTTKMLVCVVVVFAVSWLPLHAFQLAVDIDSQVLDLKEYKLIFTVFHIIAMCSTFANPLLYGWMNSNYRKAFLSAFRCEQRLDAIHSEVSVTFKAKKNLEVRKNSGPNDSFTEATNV
The experiment is classed as functional, cell-based.

Experiment [9] deals with Lytic switch protein BZLF1 (Epstein-Barr virus (strain B95-8) (HHV-4) (Human herpesvirus 4), UniProt P03206). The experiment in a line: EBV ZTA inhibitors, dose response, counter-screen for EBNA-1 inhibitor project, biochemical, fluorescence polarization, Epstein-Barr virus, 1536-well (AID 2377).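 Note: fluorescence polarization of Cy5-labelled ZRE DNA probe bound by purified Zta.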 More on the design: species or system human gammaherpesvirus 4.
Lytic switch protein BZLF1, sequence (P03206 whole entry): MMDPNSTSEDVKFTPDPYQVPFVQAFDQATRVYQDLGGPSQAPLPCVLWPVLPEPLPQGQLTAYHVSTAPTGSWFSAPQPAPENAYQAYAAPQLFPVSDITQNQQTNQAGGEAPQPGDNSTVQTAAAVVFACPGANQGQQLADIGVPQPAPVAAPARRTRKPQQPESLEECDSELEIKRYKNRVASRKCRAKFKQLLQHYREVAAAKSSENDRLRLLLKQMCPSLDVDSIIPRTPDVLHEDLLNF
Experiment [10] concerns the target Epstein-Barr nuclear antigen 1 (Epstein-Barr virus (strain B95-8) (HHV-4) (Human herpesvirus 4), UniProt P03211). The experiment in a line: EBNA-1 inhibitors, dose response, biochemical, fluorescence polarization, 1536-well (AID 2381).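 Note: fluorescence polarization of a Cy5 DNA probe bound by EBNA-1 protein.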 On the set-up: species or system human gammaherpesvirus 4. (Polarisation of emitted light reports the rotation of a fluorescent probe.)

Experiment [11] has as its target T8, Estrogen receptor beta (Homo sapiens, UniProt Q92731). As to the kind of experiment: ERβ–SRC-3 coactivator interaction inhibitors, confirmation, orthogonal assay, biochemical, ELISA, streptavidin-HRP readout (AID 1060). (An ELISA detects its analyte on a solid surface through an enzyme-linked reagent.)
A short description of experiment [12]: insulin promoter down-regulators in MIN6 cells, imaging, high-content screening, mouse beta cells (AID 1628). In kind it is functional.
Experiment [13] addresses Nonstructural protein 1 (Influenza A virus, UniProt Q194T2). The experiment is classed as functional, Influenza A virus (A/California/07/2009(H1N1)).
The target in experiment [14] is T8, Estrogen receptor beta.
Experiment [15] can be described thus: cytotoxicity in MIN6 insulinoma cells, dose response, cytotoxicity control, cell-based, mouse insulinoma (AID 2122).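 Note: confirmatory high-throughput counterscreen run to flag cytotoxic compounds; mouse MIN-6 beta cells carrying an insulin promoter eGFP reporter.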 In kind it is functional.

Activity calls are given as the source filed them.

As usually defined, the IC50 is the concentration needed to halve the response being measured. In general, EC50 refers to the concentration at which the effect is half-maximal. A word on the AC50: it is the concentration giving half of the maximal activity seen.

T8 sequence (Q92731 whole entry): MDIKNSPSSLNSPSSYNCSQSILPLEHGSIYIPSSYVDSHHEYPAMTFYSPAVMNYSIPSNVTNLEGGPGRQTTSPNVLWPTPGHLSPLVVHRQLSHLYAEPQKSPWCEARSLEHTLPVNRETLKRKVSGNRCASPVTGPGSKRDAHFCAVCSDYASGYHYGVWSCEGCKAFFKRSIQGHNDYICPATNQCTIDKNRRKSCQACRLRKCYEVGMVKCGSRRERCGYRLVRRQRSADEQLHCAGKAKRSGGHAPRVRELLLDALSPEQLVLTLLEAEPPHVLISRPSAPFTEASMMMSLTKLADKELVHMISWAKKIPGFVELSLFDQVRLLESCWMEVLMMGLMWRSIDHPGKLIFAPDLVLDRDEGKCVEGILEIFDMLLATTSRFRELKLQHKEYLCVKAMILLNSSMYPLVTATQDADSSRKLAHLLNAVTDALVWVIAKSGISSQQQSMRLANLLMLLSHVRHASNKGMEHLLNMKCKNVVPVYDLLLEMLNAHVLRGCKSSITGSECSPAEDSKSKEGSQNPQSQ
Epstein-Barr nuclear antigen 1, sequence (P03211 whole entry): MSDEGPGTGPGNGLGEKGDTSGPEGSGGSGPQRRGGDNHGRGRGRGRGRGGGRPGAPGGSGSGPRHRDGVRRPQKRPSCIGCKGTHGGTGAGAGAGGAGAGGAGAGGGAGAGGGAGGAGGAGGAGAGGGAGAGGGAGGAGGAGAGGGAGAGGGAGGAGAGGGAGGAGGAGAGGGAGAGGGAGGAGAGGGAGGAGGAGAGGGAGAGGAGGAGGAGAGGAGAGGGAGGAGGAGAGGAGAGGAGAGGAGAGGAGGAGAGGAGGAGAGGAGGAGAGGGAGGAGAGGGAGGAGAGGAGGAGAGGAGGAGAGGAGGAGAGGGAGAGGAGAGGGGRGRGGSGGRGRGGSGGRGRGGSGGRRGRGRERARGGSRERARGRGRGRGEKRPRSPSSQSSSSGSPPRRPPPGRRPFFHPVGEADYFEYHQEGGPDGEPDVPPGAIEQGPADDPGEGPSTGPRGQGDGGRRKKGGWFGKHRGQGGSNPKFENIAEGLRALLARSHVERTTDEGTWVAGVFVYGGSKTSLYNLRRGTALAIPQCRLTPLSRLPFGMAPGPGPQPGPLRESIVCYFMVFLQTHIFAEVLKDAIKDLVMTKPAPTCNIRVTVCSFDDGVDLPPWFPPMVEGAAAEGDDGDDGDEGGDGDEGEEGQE
Nonstructural protein 1, sequence (Q194T2 whole entry): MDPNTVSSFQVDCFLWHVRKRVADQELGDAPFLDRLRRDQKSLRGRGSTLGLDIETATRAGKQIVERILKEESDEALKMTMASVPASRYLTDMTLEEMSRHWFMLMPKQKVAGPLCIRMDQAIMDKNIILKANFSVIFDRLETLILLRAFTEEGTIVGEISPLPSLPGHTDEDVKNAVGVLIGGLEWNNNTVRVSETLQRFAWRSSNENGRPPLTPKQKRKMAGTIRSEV

For the compound `COc1cc(/C=N/Nc2c(Cl)c(Cl)nc(C(=O)O)c2Cl)cc(OC)c1OC`, the IC50 in experiment [1] is > 17 µM (not active).

In the case of `O=C(CCC(=O)Nc1ccc(F)cc1)Nc1ccc(F)cc1`, in [1], the IC50 is on record as > 17 µM (not active).

`O=c1cc(-c2ccc(F)cc2)[nH][nH]1`: the EC50 in experiment [2] is 0.548 µM (active). Further, the AC50 in experiment [3] was 1.79 µM (active). Also, the figures for the IC50 in experiment [4], in [5] and in experiment [6] were > 59.6 µM (not active), > 73.5 µM (not active) and 1.13 µM (active), respectively.

In the case of `COc1ccc(NC(=O)c2nnc(O)c3ccccc23)cc1S(=O)(=O)N1CCCCC1`, the IC50 in experiment [7] is listed as 21 µM (not active); in [8] it was 19.6 µM (not active).

As for `O=C(NC(=S)Nc1ccc(S(=O)(=O)N2CCCCCC2)cc1)c1cccs1`, the IC50 in experiment [9] is listed as > 111 µM (not active); in [10], 14.8 µM (not active).

Consider `O=C(NNC(=O)c1ccc(NC(=O)c2ccccc2)cc1)c1ccc(F)cc1`, for which the IC50 in [9] was > 111 µM (not active); in [10], 6.82 µM (active).

As for `CN(C)c1ccc(/N=C/c2ccco2)cc1`, the IC50 is 0.048 µM (not active) in experiment [11]; 3.55 µM (active) in [12]; 16.6 µM (active) in experiment [13]; 18.5 µM (active) in experiment [14]; 3.61 µM (active) in [15].

For `COCc1cc(O)n2c(-c3ccc(C)cc3)nnc2n1`, the IC50 in experiment [11] was 1.03 µM (not active); in experiment [14], 17.5 µM (active).

Source of the values: ChEMBL document CHEMBL1201862, “PubChem BioAssay data set” (2004).
